Test results taken from ChEMBL document CHEMBL5647694, “Novel orally bioavailable EZH1/2 dual inhibitors with greater antitumor efficacy than an EZH2 selective inhibitor” (Cancer Sci, 2017).

Tests used:
[1] = molecular target: Ephrin type-A receptor 6 (Homo sapiens) (UniProt Q9UF33); assay: Inhibition of N-terminal GST-fused human EPHA6 cytoplasmic domain (683 to 1130 residues) expressed in baculovirus-infected Sf21 cells using Blk/Lyntide as substrate at 1 uM in presence of ATP by Mobility shift assay
[2] = molecular target: Ephrin type-B receptor 3 (Homo sapiens) (UniProt P54753); assay: Inhibition of N-terminal GST-fused human EPHB3 cytoplasmic domain (596 to 998 residues) expressed in baculovirus-infected Sf21 cells using Blk/Lyntide as substrate at 1 uM in presence of ATP by Mobility shift assay
[3] = molecular target: Tyrosine-protein kinase JAK2 (Homo sapiens) (UniProt O60674); assay: Inhibition of N-terminal His-tagged human JAK2 catalytic domain (826 to 1132 residues) expressed in baculovirus-infected Sf21 cells using Srctide as substrate at 1 uM in presence of ATP by Mobility shift assay
[4] = molecular target: Platelet-derived growth factor receptor alpha (Homo sapiens) (UniProt P16234); assay: Inhibition of N-terminal GST-tagged human PDGFR-alpha cytoplasmic domain (550 to 1089 residues) expressed in baculovirus-infected Sf21 cells using CSKtide as substrate at 1 uM in presence of ATP by Mobility shift assay
[5] = molecular target: Macrophage-stimulating protein receptor (Homo sapiens) (UniProt Q04912); assay: Inhibition of N-terminal GST-tagged human RON cytoplasmic domain (979 to 1400 residues) expressed in baculovirus-infected Sf21 cells using Srctide as substrate at 1 uM in presence of ATP by Mobility shift assay
[6] = molecular target: Proto-oncogene tyrosine-protein kinase Src (Homo sapiens) (UniProt P12931); assay: Inhibition of N-terminal GST-tagged full length human SRC (1 to 536 residues) expressed in baculovirus-infected Sf21 cells using Srctide as substrate at 1 uM in presence of ATP by Mobility shift assay
[7] = Inhibition of N-terminal GST-tagged human TRKB cytoplasmic domain (456 to 825 residues) expressed in baculovirus-infected Sf21 cells using Srctide as substrate at 1 uM in presence of ATP by Mobility shift assay; details: condition cancer
[8] = molecular target: Tyrosine-protein kinase Yes (Homo sapiens) (UniProt P07947); assay: Inhibition of N-terminal GST-tagged full length human YES (1 to 543 residues) expressed in baculovirus-infected Sf21 cells using Srctide as substrate at 1 uM in presence of ATP by Mobility shift assay
[9] = molecular target: CDK2/Cyclin A2 (Homo sapiens) (UniProt P24941+P20248); assay: Inhibition of N-terminal GST-tagged full length human CDK2 (1 to 298 residues)/GST-tagged human CyclinA2 (1 to 432 residues) expressed in baculovirus-infected Sf21 cells using Modified Histone H1 as substrate at 1 uM in presence of ATP by Mobility shift assay
[10] = molecular target: CDK3/Cyclin E (Homo sapiens) (UniProt P24864+Q00526); assay: Inhibition of N-terminal GST-tagged full length human CDK3 (1 to 305 residues)/N-terminal GST-tagged human CyclinE1 (1 to 410 residues) expressed in baculovirus-infected Sf21 cells using Modified Histone H1 as substrate at 1 uM in presence of ATP by Mobility shift assay
[11] = molecular target: Casein kinase II alpha'/ beta (Homo sapiens) (UniProt P67870+P19784); assay: Inhibition of N-terminal GST-fused full length human CK2alpha2 (1 to 350 residues)/His-tagged human CK2beta (1 to 215 residues ) expressed in baculovirus expression system using CK2tide as substrate at 1 uM in presence of ATP by Mobility shift assay
[12] = molecular target: Dual specificity tyrosine-phosphorylation-regulated kinase 1A (Homo sapiens) (UniProt Q13627); assay: Inhibition of N-terminal GST-fused full length human DYRK1A (1 to 763 residues) expressed in baculovirus expression system using DYRKtide-F as substrate at 1 uM in presence of ATP by Mobility shift assay
[13] = molecular target: Glycogen synthase kinase-3 beta (Homo sapiens) (UniProt P49841); assay: Inhibition of N-terminal GST-fused full length human GSK3-beta (1 to 420 residues) expressed in baculovirus expression system using CREBtide-p as substrate at 1 uM in presence of ATP by Mobility shift assay
[14] = molecular target: Homeodomain-interacting protein kinase 3 (Homo sapiens) (UniProt Q9H422); assay: Inhibition of N-terminal GST-fused human HIPK3 catalytic domain (161 to 562 residues) expressed in baculovirus expression system using DYRKtide-F as substrate at 1 uM in presence of ATP by Mobility shift assay
[15] = molecular target: Inhibitor of nuclear factor kappa-B kinase subunit beta (Homo sapiens) (UniProt O14920); assay: Inhibition of N-terminal His-tagged truncated human IKK-beta (1 to 662 residues) expressed in baculovirus expression system using Modified IkBalpha-derived peptide as substrate at 1 uM in presence of ATP by Mobility shift assay
[16] = molecular target: Serine/threonine-protein kinase MARK1 (Homo sapiens) (UniProt Q9P0L2); assay: Inhibition of N-terminal GST-fused full length human MARK1 (1 to 795 residues) expressed in baculovirus expression system using CHKtide as substrate at 1 uM in presence of ATP by Mobility shift assay
[17] = molecular target: Serine/threonine-protein kinase 38-like (Homo sapiens) (UniProt Q9Y2H1); assay: Inhibition of N-terminal GST-fused full length human NDR2 (1 to 464 residues) expressed in baculovirus expression system using SGKtide as substrate at 1 uM in presence of ATP by Mobility shift assay
[18] = molecular target: Serine/threonine-protein kinase Nek1 (Homo sapiens) (UniProt Q96PY6); assay: Inhibition of N-terminal GST-fused human NEK1 catalytic domain (1 to 505 residues) expressed in baculovirus expression system using CDK7 peptide as substrate at 1 uM in presence of ATP by Mobility shift assay
[19] = molecular target: Mitogen-activated protein kinase 12 (Homo sapiens) (UniProt P53778); assay: Inhibition of N-terminal GST-fused full length human p38gamma (1 to 367 residues) expressed in Escherichia coli expression system using Modified Erktide as substrate at 1 uM in presence of ATP by Mobility shift assay
[20] = molecular target: PAS domain-containing serine/threonine-protein kinase (Homo sapiens) (UniProt Q96RG2); assay: Inhibition of N-terminal GST-fused human PASK catalytic domain (949 to 1323 residues) expressed in baculovirus expressing system using GS peptide as substrate at 1 uM in presence of ATP by Mobility shift assay
[21] = molecular target: [Pyruvate dehydrogenase (acetyl-transferring)] kinase isozyme 2, mitochondrial (Homo sapiens) (UniProt Q15119); assay: Inhibition of N-terminal GST-fused full length human PDHK2 (1 to 407 residues) expressed in baculovirus expression system using PDHKtide as substrate at 1 uM in presence of ATP by Mobility shift assay
[22] = molecular target: Phosphorylase b kinase gamma catalytic chain, skeletal muscle/heart isoform (Homo sapiens) (UniProt Q16816); assay: Inhibition of N-terminal GST-fused full length human PHKG1 (1 to 387 residues) expressed in baculovirus expression system using GS peptide as substrate at 1 uM in presence of ATP by Mobility shift assay

Compound | inhibition [1] [%] | inhibition [2] [%] | inhibition [3] [%] | inhibition [4] [%] | inhibition [5] [%] | inhibition [6] [%] | inhibition at 1 µM [7] [%] | inhibition [8] [%] | inhibition [9] [%] | inhibition [10] [%] | inhibition [11] [%] | inhibition [12] [%] | inhibition [13] [%] | inhibition [14] [%] | inhibition [15] [%] | inhibition [16] [%] | inhibition [17] [%] | inhibition [18] [%] | inhibition [19] [%] | inhibition [20] [%] | further results
Cc1cc(C)c(CNC(=O)c2cc(Br)c3c(c2C)O[C@@](C)([C@H]2CC[C@H](N(C)C)CC2)O3)c(=O)[nH]1 | -3.8 | -4.4 | -4.4 | -6.1 | -4.9 | -4.9 | -7.7 | -1.6 | -0.3 | -1 | -5.5 | -8.2 | -3.3 | -1.8 | 2.1 | -4.5 | -2.4 | -7 | -1.6 | -3.7 | inhibition [21]: 1.6%; inhibition [22]: -1.5%
Cc1cc(C)c(CNC(=O)c2cc(Cl)c3c(c2C)O[C@@](C)([C@H]2CC[C@H](N(C)C)CC2)O3)c(=O)[nH]1 [VALEMETOSTAT] | 0.1 | -5.9 | -4.5 | -4.4 | -3.5 | -7.6 | -8.7 | -1.8 | 3 | -0.2 | -4.7 | -3.4 | -7.1 | 1.4 | -1.8 | -7.1 | -1.3 | -7 | -3 | -5.8 | inhibition [21]: 1.4%; inhibition [22]: -3.7%
